# Article PMC6409085, “Three odorant-binding proteins are involved in the behavioral response of Sogatella furcifera to rice plant volatiles” (PeerJ, 2019)
# Values joined by “and” are separate entries in the source; they are usually repeats but may differ in a detail not shown here. Equal values may be shown once.
# Tests used:
# SfurOBP2 = SfurOBP2 (Sogatella furcifera, UniProt V5T759); assay: biochemical; format: binding
# Method in brief: (§1)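 Protein 2.0 µM + 1-NPN 2.0 µM, 50 mM Tris-HCl pH 7.4; competitor odorants 2, 4 … 20 µM final; read 2 min post-addition, ex 337/em 390–490 nm; n=3. K1-NPN from 1-NPN titration/Scatchard; Ki from IC50 corrected for free 1-NPN.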
# SfurOBP1 = SfurOBP1 (Sogatella furcifera, UniProt V5T8N5); assay: biochemical; format: binding; conditions: for Fluorescence competitive binding assay, fluorescence intensity: OBP1, three replicate columns
# Method in brief: as §1
# SfurOBP3 = SfurOBP3 (Sogatella furcifera, UniProt V5T818); assay: biochemical; format: binding; conditions: for Fluorescence competitive binding assay, fluorescence intensity: OBP3, three replicate columns
# Method in brief: as §1
# SfurOBP11 = SfurOBP11 (Sogatella furcifera, UniProt V5T6E3); assay: biochemical; format: binding
# Method in brief: as §1
# S. furcifera adults = assay: Y-tube olfactometer behavioral trials; format: in vivo, Sogatella furcifera; conditions: odorant 50 µL/L vs hexane; adults
# Method in brief: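 Single S. furcifera adults (2 days post-emergence, starved 0.5 h) chose between odorant (100 µL of 50 µL/L on filter paper) and hexane control in a glass Y-tube, charcoal-filtered humidified air 300 mL/min per arm, 25 ± 1 °C, 50% RH. Choice scored if insect passed half an arm and stayed >1 min within 10 min; 45 insects per compound, chi-squared test.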
# Chain of SfurOBP1 (V5T8N5 entry or part of it): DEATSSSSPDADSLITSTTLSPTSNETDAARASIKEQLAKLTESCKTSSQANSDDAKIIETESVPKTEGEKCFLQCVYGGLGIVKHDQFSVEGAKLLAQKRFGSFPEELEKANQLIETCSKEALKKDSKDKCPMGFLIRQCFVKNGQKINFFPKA
# Chain of SfurOBP2 (V5T759 entry or part of it): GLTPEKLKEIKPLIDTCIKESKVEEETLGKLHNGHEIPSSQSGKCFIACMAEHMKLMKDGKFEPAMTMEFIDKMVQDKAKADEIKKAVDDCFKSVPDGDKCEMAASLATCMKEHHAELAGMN
# Chain of SfurOBP3 (V5T818 entry or part of it): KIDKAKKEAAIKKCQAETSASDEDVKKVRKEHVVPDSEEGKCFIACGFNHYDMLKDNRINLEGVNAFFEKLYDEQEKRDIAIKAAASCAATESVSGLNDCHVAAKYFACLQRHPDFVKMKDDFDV
# Chain of SfurOBP11 (V5T6E3 entry or part of it): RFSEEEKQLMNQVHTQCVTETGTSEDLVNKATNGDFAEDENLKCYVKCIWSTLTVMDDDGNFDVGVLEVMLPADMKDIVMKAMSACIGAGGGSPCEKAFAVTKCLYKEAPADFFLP
compound,measurement,setting,value
C=C1CC/C=C(\C)CC[C@@H]2[C@@H]1CC2(C)C [β-caryophyllene],IC50,SfurOBP2,2.93 µM
same,"Fluorescence competitive binding assay, OBP2 (raw fluorescence reading)","SfurOBP2; ligand concentration 2 (unit not given), replicate column 1 of 3",11458
same,"Fluorescence competitive binding assay, OBP2 (raw fluorescence reading)","SfurOBP2; ligand concentration 2 (unit not given), replicate column 2 of 3",11327
same,"Fluorescence competitive binding assay, OBP2 (raw fluorescence reading)","SfurOBP2; ligand concentration 2 (unit not given), replicate column 3 of 3",11281
same,"Fluorescence competitive binding assay, OBP2 (raw fluorescence reading)","SfurOBP2; ligand concentration 4 (unit not given), replicate column 1 of 3",12040
same,"Fluorescence competitive binding assay, OBP2 (raw fluorescence reading)","SfurOBP2; ligand concentration 4 (unit not given), replicate column 2 of 3",12315
same,"Fluorescence competitive binding assay, OBP2 (raw fluorescence reading)","SfurOBP2; ligand concentration 4 (unit not given), replicate column 3 of 3",12582
same,"Fluorescence competitive binding assay, OBP2 (raw fluorescence reading)","SfurOBP2; ligand concentration 6 (unit not given), replicate column 1 of 3",13825
same,"Fluorescence competitive binding assay, OBP2 (raw fluorescence reading)","SfurOBP2; ligand concentration 6 (unit not given), replicate column 2 of 3",12794
same,"Fluorescence competitive binding assay, OBP2 (raw fluorescence reading)","SfurOBP2; ligand concentration 6 (unit not given), replicate column 3 of 3",13738
same,"Fluorescence competitive binding assay, OBP2 (raw fluorescence reading)","SfurOBP2; ligand concentration 8 (unit not given), replicate column 1 of 3",13150
same,"Fluorescence competitive binding assay, OBP2 (raw fluorescence reading)","SfurOBP2; ligand concentration 8 (unit not given), replicate column 2 of 3",13647
same,"Fluorescence competitive binding assay, OBP2 (raw fluorescence reading)","SfurOBP2; ligand concentration 8 (unit not given), replicate column 3 of 3",14723
same,"Fluorescence competitive binding assay, OBP2 (raw fluorescence reading)","SfurOBP2; ligand concentration 10 (unit not given), replicate column 1 of 3",16274
same,"Fluorescence competitive binding assay, OBP2 (raw fluorescence reading)","SfurOBP2; ligand concentration 10 (unit not given), replicate column 2 of 3",13413
same,"Fluorescence competitive binding assay, OBP2 (raw fluorescence reading)","SfurOBP2; ligand concentration 10 (unit not given), replicate column 3 of 3",15514
same,"Fluorescence competitive binding assay, OBP2 (raw fluorescence reading)","SfurOBP2; ligand concentration 12 (unit not given), replicate column 1 of 3",16497
same,"Fluorescence competitive binding assay, OBP2 (raw fluorescence reading)","SfurOBP2; ligand concentration 12 (unit not given), replicate column 2 of 3",15342
same,"Fluorescence competitive binding assay, OBP2 (raw fluorescence reading)","SfurOBP2; ligand concentration 12 (unit not given), replicate column 3 of 3",16204
same,"Fluorescence competitive binding assay, OBP2 (raw fluorescence reading)","SfurOBP2; ligand concentration 14 (unit not given), replicate column 1 of 3",16950
same,"Fluorescence competitive binding assay, OBP2 (raw fluorescence reading)","SfurOBP2; ligand concentration 14 (unit not given), replicate column 2 of 3",15785
same,"Fluorescence competitive binding assay, OBP2 (raw fluorescence reading)","SfurOBP2; ligand concentration 14 (unit not given), replicate column 3 of 3",16267
same,"Fluorescence competitive binding assay, OBP2 (raw fluorescence reading)","SfurOBP2; ligand concentration 16 (unit not given), replicate column 1 of 3",16569
same,"Fluorescence competitive binding assay, OBP2 (raw fluorescence reading)","SfurOBP2; ligand concentration 16 (unit not given), replicate column 2 of 3",16590
same,"Fluorescence competitive binding assay, OBP2 (raw fluorescence reading)","SfurOBP2; ligand concentration 16 (unit not given), replicate column 3 of 3",16267
same,"Fluorescence competitive binding assay, OBP2 (raw fluorescence reading)","SfurOBP2; ligand concentration 18 (unit not given), replicate column 1 of 3",20111
same,"Fluorescence competitive binding assay, OBP2 (raw fluorescence reading)","SfurOBP2; ligand concentration 18 (unit not given), replicate column 2 of 3",21295
same,"Fluorescence competitive binding assay, OBP2 (raw fluorescence reading)","SfurOBP2; ligand concentration 18 (unit not given), replicate column 3 of 3",20566
same,"Fluorescence competitive binding assay, OBP2 (raw fluorescence reading)","SfurOBP2; ligand concentration 20 (unit not given), replicate column 1 of 3",21451
same,"Fluorescence competitive binding assay, OBP2 (raw fluorescence reading)","SfurOBP2; ligand concentration 20 (unit not given), replicate column 2 of 3",21222
same,"Fluorescence competitive binding assay, OBP2 (raw fluorescence reading)","SfurOBP2; ligand concentration 20 (unit not given), replicate column 3 of 3",20042
same,IC50,SfurOBP1,> 20 µM
same,"Fluorescence competitive binding assay, fluorescence intensity",SfurOBP1; ligand concentration 2 (μM),5117 and 5425 and 5286
same,"Fluorescence competitive binding assay, fluorescence intensity",SfurOBP1; ligand concentration 4 (μM),6363 and 5644 and 6004
same,"Fluorescence competitive binding assay, fluorescence intensity",SfurOBP1; ligand concentration 6 (μM),6522 and 6380 and 7207
same,"Fluorescence competitive binding assay, fluorescence intensity",SfurOBP1; ligand concentration 8 (μM),6475 and 7284 and 8411
same,"Fluorescence competitive binding assay, fluorescence intensity",SfurOBP1; ligand concentration 10 (μM),6788 and 8986 and 9051
same,"Fluorescence competitive binding assay, fluorescence intensity",SfurOBP1; ligand concentration 12 (μM),7963 and 9385 and 12364
same,"Fluorescence competitive binding assay, fluorescence intensity",SfurOBP1; ligand concentration 14 (μM),10459 and 9678 and 17343
same,"Fluorescence competitive binding assay, fluorescence intensity",SfurOBP1; ligand concentration 16 (μM),9671 and 11754 and 9907
same,"Fluorescence competitive binding assay, fluorescence intensity",SfurOBP1; ligand concentration 18 (μM),16605 and 15288 and 16195
same,"Fluorescence competitive binding assay, fluorescence intensity",SfurOBP1; ligand concentration 20 (μM),15809 and 13061 and 12977
same,IC50,SfurOBP3,> 20 µM
same,"Fluorescence competitive binding assay, fluorescence intensity",SfurOBP3; ligand concentration 2,59910 and 62614 and 72673
same,"Fluorescence competitive binding assay, fluorescence intensity",SfurOBP3; ligand concentration 4,64089 and 65130 and 67441
same,"Fluorescence competitive binding assay, fluorescence intensity",SfurOBP3; ligand concentration 6,62365 and 65722 and 64412
same,"Fluorescence competitive binding assay, fluorescence intensity",SfurOBP3; ligand concentration 8,61822 and 63261 and 63413
same,"Fluorescence competitive binding assay, fluorescence intensity",SfurOBP3; ligand concentration 10,59908 and 63429 and 67892
same,"Fluorescence competitive binding assay, fluorescence intensity",SfurOBP3; ligand concentration 12,56993 and 56771 and 64941
same,"Fluorescence competitive binding assay, fluorescence intensity",SfurOBP3; ligand concentration 14,61557 and 60060 and 62301
same,"Fluorescence competitive binding assay, fluorescence intensity",SfurOBP3; ligand concentration 16,39308 and 53990 and 51354
same,"Fluorescence competitive binding assay, fluorescence intensity",SfurOBP3; ligand concentration 18,76113 and 82456 and 70640
same,"Fluorescence competitive binding assay, fluorescence intensity",SfurOBP3; ligand concentration 20,72444 and 66812 and 61866
same,IC50,SfurOBP11,> 20 µM
same,"Fluorescence intensity, fluorescence competitive binding assay, OBP11","SfurOBP11; ligand concentration 2, replicate 1",23970
same,"Fluorescence intensity, fluorescence competitive binding assay, OBP11","SfurOBP11; ligand concentration 2, replicate 2",23335
same,"Fluorescence intensity, fluorescence competitive binding assay, OBP11","SfurOBP11; ligand concentration 2, replicate 3",21938
same,"Fluorescence intensity, fluorescence competitive binding assay, OBP11","SfurOBP11; ligand concentration 4, replicate 1",23122
same,"Fluorescence intensity, fluorescence competitive binding assay, OBP11","SfurOBP11; ligand concentration 4, replicate 2",24566
same,"Fluorescence intensity, fluorescence competitive binding assay, OBP11","SfurOBP11; ligand concentration 4, replicate 3",25482
same,"Fluorescence intensity, fluorescence competitive binding assay, OBP11","SfurOBP11; ligand concentration 6, replicate 1",23526
same,"Fluorescence intensity, fluorescence competitive binding assay, OBP11","SfurOBP11; ligand concentration 6, replicate 2",25770
same,"Fluorescence intensity, fluorescence competitive binding assay, OBP11","SfurOBP11; ligand concentration 6, replicate 3",26267
same,"Fluorescence intensity, fluorescence competitive binding assay, OBP11","SfurOBP11; ligand concentration 8, replicate 1",21931
same,"Fluorescence intensity, fluorescence competitive binding assay, OBP11","SfurOBP11; ligand concentration 8, replicate 2",24474
same,"Fluorescence intensity, fluorescence competitive binding assay, OBP11","SfurOBP11; ligand concentration 8, replicate 3",27203
same,"Fluorescence intensity, fluorescence competitive binding assay, OBP11","SfurOBP11; ligand concentration 10, replicate 1",23853
same,"Fluorescence intensity, fluorescence competitive binding assay, OBP11","SfurOBP11; ligand concentration 10, replicate 2",25460
same,"Fluorescence intensity, fluorescence competitive binding assay, OBP11","SfurOBP11; ligand concentration 10, replicate 3",25443
same,"Fluorescence intensity, fluorescence competitive binding assay, OBP11","SfurOBP11; ligand concentration 12, replicate 1",23639
same,"Fluorescence intensity, fluorescence competitive binding assay, OBP11","SfurOBP11; ligand concentration 12, replicate 2",23490
same,"Fluorescence intensity, fluorescence competitive binding assay, OBP11","SfurOBP11; ligand concentration 12, replicate 3",23358
same,"Fluorescence intensity, fluorescence competitive binding assay, OBP11","SfurOBP11; ligand concentration 14, replicate 1",23808
same,"Fluorescence intensity, fluorescence competitive binding assay, OBP11","SfurOBP11; ligand concentration 14, replicate 2",26534
same,"Fluorescence intensity, fluorescence competitive binding assay, OBP11","SfurOBP11; ligand concentration 14, replicate 3",25924
same,"Fluorescence intensity, fluorescence competitive binding assay, OBP11","SfurOBP11; ligand concentration 16, replicate 1",22662
same,"Fluorescence intensity, fluorescence competitive binding assay, OBP11","SfurOBP11; ligand concentration 16, replicate 2",23024
same,"Fluorescence intensity, fluorescence competitive binding assay, OBP11","SfurOBP11; ligand concentration 16, replicate 3",23415
same,"Fluorescence intensity, fluorescence competitive binding assay, OBP11","SfurOBP11; ligand concentration 18, replicate 1",30250
same,"Fluorescence intensity, fluorescence competitive binding assay, OBP11","SfurOBP11; ligand concentration 18, replicate 2",30294
same,"Fluorescence intensity, fluorescence competitive binding assay, OBP11","SfurOBP11; ligand concentration 18, replicate 3",30235
same,"Fluorescence intensity, fluorescence competitive binding assay, OBP11","SfurOBP11; ligand concentration 20, replicate 1",30296
same,"Fluorescence intensity, fluorescence competitive binding assay, OBP11","SfurOBP11; ligand concentration 20, replicate 2",30444
same,"Fluorescence intensity, fluorescence competitive binding assay, OBP11","SfurOBP11; ligand concentration 20, replicate 3",30224
same,number of insects choosing hexane arm,S. furcifera adults,15
same,number of insects choosing volatilies arm,S. furcifera adults,16
same,number of insects failed (no choice),S. furcifera adults,9
